Results reported in patent US20220009914A1, “Analogs of Nitrofuran Antibiotics to Combat Resistance” (The Trustees of Indiana University, priority 2020, published 2022).
pEC50, pIC50: −log10 of the molar value. Like-named read-outs stand apart in the source and are kept apart here.

What was measured:
E. coli GroEL/ES = biological target: T1, E. coli GroEL/ES (Escherichia coli, UniProt P0A6F5); assay: GroEL/ES-mediated dMDH refolding assay; assay type: biochemical
T1 construct: made in house; host or cells: GroEL in NEB 5-alpha E. coli; GroES in E. coli BL21 (DE3)
T1 sequence (P0A6F5 2-548): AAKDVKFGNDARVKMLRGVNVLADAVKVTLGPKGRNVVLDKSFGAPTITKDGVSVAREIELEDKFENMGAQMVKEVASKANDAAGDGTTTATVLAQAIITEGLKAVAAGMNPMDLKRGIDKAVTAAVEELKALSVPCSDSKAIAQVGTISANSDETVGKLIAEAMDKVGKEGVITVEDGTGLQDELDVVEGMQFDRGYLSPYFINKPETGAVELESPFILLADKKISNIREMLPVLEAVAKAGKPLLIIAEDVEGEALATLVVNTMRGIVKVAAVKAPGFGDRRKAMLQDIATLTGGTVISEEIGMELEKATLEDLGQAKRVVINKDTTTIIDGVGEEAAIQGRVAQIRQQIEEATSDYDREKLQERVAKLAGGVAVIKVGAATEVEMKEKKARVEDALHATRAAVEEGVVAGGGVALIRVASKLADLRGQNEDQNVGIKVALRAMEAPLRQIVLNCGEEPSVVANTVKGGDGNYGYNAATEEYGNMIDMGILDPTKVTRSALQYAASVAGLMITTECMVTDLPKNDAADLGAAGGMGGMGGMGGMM
Procedure: Evaluating compounds for inhibition in the GroEL/ES-mediated dMDH refolding assay. All compounds were evaluated for inhibiting E. coli GroEL/ES-mediated refolding of the denatured MDH reporter enzyme. Reagent preparation: For these assays, four primary reagent stocks were prepared: 1) GroEL/ES-dMDH binary complex stock; 2) ATP initiation stock; 3) EDTA quench stock; 4) MDH enzymatic assay stock. Denatured MDH (dMDH) was prepared by 2-fold dilution of MDH (5 mg/ml, soluble pig heart MDH from Roche, product #10127248001) with denaturant buffer (7 M guanidine-HCl, 200 mM Tris, pH 7.4, and 50 mM DTT). MDH was completely denatured by incubating at room temperature for >45 min. The binary complex solutions were prepared by slowly adding the dMDH stock to a stirring stock with GroEL and GroES in folding buffer (50 mM Tris-HCl, pH 7.4, 50 mM KCl, 10 mM MgC2, and 1 mM DTT). […] For the ATP initiation stock, ATP solid was diluted into folding buffer to a final concentration of 2.5 mM. Quench solution contained 600 mM EDTA (pH 8.0). The MDH enzymatic assay stock consisted of 20 mM sodium mesoxalate and 1.6 mM NADH in reaction buffer (50 mM Tris-HCl, pH 7.4, 50 mM KCl, and 1 mM DTT).
Assay Protocol: First, 30 μL aliquots of the GroEL/ES-dMDH binary complex stocks were dispensed into clear, 384-well polystyrene plates. […] The chaperonin-mediated refolding cycles were initiated by addition of 20 μL of ATP stock (reagent concentrations during refolding cycle: 50 nM GroEL, 60 nM GroES, 12 nM dMDH, 1 mM ATP, and compounds of 100 μM to 46 nM, 3-fold dilution series) and the refolding reactions were incubated at 37° C. […] Next, the assay was quenched by addition of 10 μL of the EDTA stock to give a final concentration of 100 mM in the wells. […] A340 nm measurements were recorded at 0.5 minutes (start point) and at successive time points until the amount of NADH consumed reached ˜90% (end point, generally between 20-35 minutes).
Evaluating analogs for inhibiting GroEL/ES-mediated substrate refolding functions. […] We first evaluated all test compounds in our standard GroEL/ES-mediated refolding assays that employ either malate dehydrogenase (MDH) or rhodanese (Rho) as the denatured substrate reporter enzymes. When denatured, these enzymes are efficiently folded by GroEL/ES in the absence of inhibitors, and thus act as reporters to determine the degree of inhibition against the bacterial chaperonin system. Inhibition was examined in the presence of these two orthogonal substrates in order to support that GroEL/ES inhibitors were on-target. To further support on-target effects against GroEL/ES, we counter-screened for inhibition of the native MDH and Rho enzymatic reporter reactions, where test compounds were added after the denatured MDH and Rho substrate enzymes were completely refolded by GroEL/ES.

[1] = system: Enterococcus faecium strain NCTC 7171 (ATCC #19434); assay: bacterial proliferation assay, E. faecium; assay type: cell-based; conditions: read-out: Bacterial Proliferation EC50 E. faecium
Procedure: (§1) All compounds were evaluated for inhibiting the proliferation of E. coli and each of the ESKAPE bacteria. Results presented represent the averages of EC50 values obtained from at least four replicates. Evaluating compounds for inhibition of bacterial cell proliferation.
(§2) Growth Media: E. coli were grown with LB medium and all ESKAPE bacteria were grown in Brain Heart Infusion (BHI) medium (Becton, Dickinson and Company), with all liquid cultures supplemented with 25 mg/L Ca^2+ and 12.5 mg/L Mg^2+ to mimic physiological free concentrations of these cations. A 10 mg/mL Ca^2+ stock solution was prepared by dissolving 1.84 g of CaCl2.2H2O in 50 mL of deionized water, and a 10 mg/mL Mg^2+ stock solution was prepared by dissolving 4.18 g of MgCl2.6H2O in 50 mL deionized water—filter sterilized using 0.2 μm cellulose-acetate filters. 2.5 mL of the sterile 10 mg/mL Ca^2+ stock and 1.25 mL of the sterile 10 mg/mL Mg^2+ stock solutions were added per 1 L of autoclaved LB or BHI media to obtain 25 mg/L Ca^2+ and 12.5 mg/L Mg^2+ ions, respectively.
(§3) General Assay Protocol: Stock bacterial cultures were streaked onto LB or BHI agar plates and grown overnight at 37° C. Fresh aliquots of cation supplemented media were inoculated with single bacterial colonies and the cultures were grown overnight at 37° C. with shaking (240 rpm). The following morning, cultures were diluted 10-fold into fresh media and grown at 37° C. until bacteria had reached mid-log phase growth (OD600˜0.4-0.6). The cultures were then diluted into fresh media to achieve final OD600 readings of 0.017. Aliquots of these diluted cultures (30 μL) were added to clear, flat-bottom 384-well polystyrene plates that were previously stamped with 0.5 μL of test compounds in 20 μL of media (yielding initial OD600=0.01 bacterial cultures). All compounds were tested in dose-response with concentration ranges during the proliferation assays from 100 μM to 46 nM (3-fold dilution series). A second set of baseline control plates were prepared analogously, but without any bacteria added, to correct for possible compound absorbance and/or precipitation. […] Plates were then read at 600 nm using a Molecular Devices SpectraMax Plus384 microplate reader. […] Results presented represent the averages of EC50 values obtained from at least four replicates.
(§4) Evaluating analogs for inhibiting the growth of E. coli and the ESKAPE bacteria. Analogs were initially tested for antibacterial efficacy against representative strains of antibiotic-sensitive E. coli and the ESKAPE bacteria. To determine compound efficacy, bacterial proliferation assays were carried out in liquid media culture supplemented with physiological concentrations of free calcium and magnesium cations. For these assays, bacterial cultures (OD600=0.01) were exposed to test compounds in 8-point, 3-fold dilution series (100 μM to 46 nM concentration range), in 384-well plates. After addition of compounds to cultures, the plates were sealed with Breathe-Easy gas permeable membranes and allowed to grow to mid-log phase (OD600˜0.4-0.6), whereupon final OD600 readings were taken to assess for bacterial growth and inhibition.

[2] = system: Klebsiella pneumoniae strain NCTC 9633 (ATCC #13883); assay: bacterial proliferation assay, K. pneumoniae; assay type: cell-based; conditions: for pEC50: read-out: Bacterial Proliferation EC50 K. pneumoniae
Procedure: as §1, §2, §3, §4

Compound	pIC50 (E. coli GroEL/ES)	pEC50 [1]	pEC50 ([2]; Klebsiella pneumoniae)	pEC50 [2]	pIC50 (E. coli GroEL/ES; without NfsB nitroreductase, read-out: GroEL/ES-dMDH Refolding IC50)	inhibition of K. pneumoniae in words [2]
O=C(N/N=C/c1ccc([N+](=O)[O-])o1)c1ccc(NS(=O)(=O)c2ccc(Br)cc2)cc1 [Compound 27, 4-bromo-N-(4-(2-((5-nitrofuran-2-yl)methylene)hydrazine-1-carbonyl)phenyl)benzenesulfonamide]	4.44	< 4.00	< 4.00			
O=C(N/N=C/c1ccc([N+](=O)[O-])o1)c1ccccc1 [Compound 18, N′-((5-nitrofuran-2-yl)methylene)benzohydrazide]		4.51	4.44			
CCN(CC)S(=O)(=O)c1cccc(C(=O)N/N=C/c2ccc([N+](=O)[O-])o2)c1 [Compound 25, N,N-diethyl-3-(2-((5-nitrofuran-2-yl)methylene)hydrazine-1-carbonyl)benzenesulfonamide]	4.05	< 4.00	< 4.00			
CCOc1ccc(S(=O)(=O)Nc2ccc(C(=O)N/N=C/c3ccc(O)c4ncccc34)cc2)cc1 [Compound 15, 4-ethoxy-N-(4-(2-((8-hydroxyquinolin-5-yl)methylene)hydrazine-1-carbonyl)phenyl)benzenesulfonamide]	5.22	< 4.00	< 4.00			
CCOc1ccc(S(=O)(=O)Nc2ccc(C(=O)N/N=C/c3ccc([N+](=O)[O-])o3)cc2)cc1 [Compound 28, 4-ethoxy-N-(4-(2-((5-nitrofuran-2-yl)methylene)hydrazine-1-carbonyl)phenyl)benzenesulfonamide]	4.44	< 4.00	< 4.00			
COc1ccc(C(=O)N/N=C/c2ccc(O)c3ncccc23)cc1 [Compound 1, N′-((8-hydroxyquinolin-5-yl)methylene)-4-methoxybenzohydrazide]	4.11	< 4.00		4.07		
O=Cc1ccc([N+](=O)[O-])o1 [Compound 41, reference compound]	4.11	4.70	5.00			
O=C(N/N=C/c1ccc(O)cc1)c1ccccc1 [Compound 36, N′-(4-hydroxybenzylidene)benzohydrazide]	< 4.00	< 4.00	< 4.00			
O=C(N/N=C/c1ccc(O)c2ncccc12)c1cccc2ccccc12 [Compound 9, N′-((8-hydroxyquinolin-5-yl)methylene)-1-naphthohydrazide]	4.89	< 4.00	< 4.00			
O=C(N/N=C/c1ccc(O)c2ncccc12)c1ccc(O)cc1 [Compound 7, 4-hydroxy-N′-((8-hydroxyquinolin-5-yl)methylene)benzohydrazide]	4.37	< 4.00	4.06			
O=C(N/N=C/c1ccc([N+](=O)[O-])o1)c1ccc(O)cc1 [Nifuroxazide, reference compound]	< 4.00	5.09	4.43			
COc1ccc(C(=O)N/N=C/c2ccc([N+](=O)[O-])o2)cc1 [Compound 20, 4-methoxy-N′-((5-nitrofuran-2-yl)methylene)benzohydrazide]		4.66	< 4.00		4.16	
O=C(N/N=C/c1ccc([N+](=O)[O-])o1)c1ccccc1Oc1ccccc1 [Compound 23, N′-((5-nitrofuran-2-yl)methylene)-2-phenoxybenzohydrazide]		4.96	< 4.00			
CN(C)c1ccc(C(=O)N/N=C/c2ccc(O)c3ncccc23)cc1 [Compound 8, 4-(dimethylamino)-N′-((8-hydroxyquinolin-5-yl)methylene)benzohydrazide]	4.57	< 4.00	< 4.00			
COc1ccc(C(=O)NN)cc1 [Compound 42, reference compound]	< 4.00	< 4.00	< 4.00			
O=[N+]([O-])c1ccc(O)c2ncccc12 [Nitroxoline, reference compound]	4.30	4.74	5.55			
O=C(N/N=C/c1ccc(O)c2ncccc12)c1ccc(Cl)s1 [Compound 4, 5-chloro-N′-((8-hydroxyquinolin-5-yl)methylene)thiophene-2-carbohydrazide]	5.02	4.15	< 4.00			
O=C(N/N=C/c1ccc([N+](=O)[O-])o1)c1cccs1 [Compound 16, N′-((5-nitrofuran-2-yl)methylene)thiophene-2-carbohydrazide]		4.62	4.80			moderate inhibitors
O=C(N/N=C/c1ccc(O)c2ncccc12)c1ccccc1Oc1ccccc1 [Compound 10, N′-((8-hydroxyquinolin-5-yl)methylene)-2-phenoxybenzohydrazide]	4.82	< 4.00	< 4.00			
O=C(N/N=C/c1ccc([N+](=O)[O-])o1)c1ccc(NS(=O)(=O)c2cccs2)cc1 [Compound 26, N-(4-(2-((5-nitrofuran-2-yl)methylene)hydrazine-1-carbonyl)phenyl)thiophene-2-sulfonamide]	< 4.00	4.96	< 4.00			
O=C(N/N=C/c1ccc([N+](=O)[O-])o1)c1cccc(Oc2ccccc2)c1 [Compound 24, N′-((5-nitrofuran-2-yl)methylene)-3-phenoxybenzohydrazide]	4.15	4.96	< 4.00			
O=C(N/N=C/c1ccccc1)c1ccccc1 [Compound 38, N′-benzylidenebenzohydrazide]	< 4.00	< 4.00	< 4.00			
O=C(N/N=C/c1ccc([N+](=O)[O-])o1)c1ccncc1 [Compound 19, N′-((5-nitrofuran-2-yl)methylene)isonicotinohydrazide]		4.89	4.38			
O=C1CN(/N=C/c2ccc([N+](=O)[O-])o2)C(=O)N1 [Nitrofurantoin, reference compound]		4.42	4.40			
